Data: patent publication US7153685B2 (The Board of Trustees of the University of Illinois, priority 2002, dated 2006)

Columns and labels:
[1] = target: ER3M (Homo sapiens, UniProt P03372, E203W/G400V/H216G/Q214A)
[2] = target: ER 2 (Homo sapiens, UniProt P03372, E203W/G215R/G400V/Q214A); settings: ATL2/PAL-LUC, 10 nM ligand
Procedure: (§3) HepG2 human hepatoma cells were maintained in a humidified 5% CO2 incubator at 37° C. in Dulbecco's Modified Eagle's Medium (DMEM; Sigma; St. Louis, Mo.) supplemented with 10 % charcoal-dextran-stripped fetal bovine serum (CD-FBS; Atlanta Biologicals, Inc; Atlanta, Ga.), 50,000 U/l of penicillin, and 50 mg/liter streptomycin (Life Technologies, Inc.). MCF-7 cells were routinely maintained in DMEM/Nutrient Mixture F-12 (DMEM/F12) supplemented with 10% heat-inactived FBS, 50,000 U/l of penicillin, and 50 mg/l streptomycin. CHO-S cells were maintained in DMEM/F12 supplemented with 10% heat-inactivated FBS (CD-FBS when ERs were being expressed) or 10% CD-new born calf serum (CD-NBCS, when reporter activity by different ligands were measured), 29.2 mg/l L-glutamine (Sigma), and 50,000 U/l of penicillin and 50 mg/l streptomycin.
Transient transfections in HepG2 cells was accomplished using calcium phosphate co-precipitation (Ausubel et al., 1987). Briefly, cells were plated in 12-well microplates at a density of 1×10^5 cells/well. The next day, the medium was replaced, and 2–6 hours later, precipitated calcium phosphate:DNA co-crystals were added. […] Activity was determined using the dual luciferase assay protocol according to the manufacturer's directions (Promega) on a Monolight 2010 luminometer (Analytical Luminescence, San Diego, Calif.)

[3] = system: wild type ER and the ER mutants
Procedure: HepG2 human hepatoma cells were maintained in a humidified 5% CO2 incubator at 37° C. in Dulbecco's Modified Eagle's Medium (DMEM; Sigma; St. Louis, Mo.) supplemented with 10 % charcoal-dextran-stripped fetal bovine serum (CD-FBS; Atlanta Biologicals, Inc; Atlanta, Ga.), 50,000 U/l of penicillin, and 50 mg/liter streptomycin (Life Technologies, Inc.). MCF-7 cells were routinely maintained in DMEM/Nutrient Mixture F-12 (DMEM/F12) supplemented with 10% heat-inactived FBS, 50,000 U/l of penicillin, and 50 mg/l streptomycin.
Briefly, cells were plated in 12-well microplates at a density of 1×10^5 cells/well. The next day, the medium was replaced, and 2–6 hours later, precipitated calcium phosphate:DNA co-crystals were added. After 12–16 hours, the cells were shocked for 3 minutes with 20% glycerol in Tris-buffered saline, pH 7.4. Fresh medium and (if any) hormones were added. For MCF-7 and 231 cells, transient transfection was carried out using the Tfx™-20 reagent (Promega; Madison, Wis.) according to the manufacturer's direction with minor changes. Briefly, 1×10^5 cells were plated in each well of 12-well microplates one day before transfection. A 1:3 ratio of DNA to lipid was used. The DMEM/F12 medium without serum was used as carrier for the DNA-lipid mixture. After 1 hour incubation with the DNA-lipid-DMEM/F12 at 37° C., the cells were transferred to fresh DMEM/F12 supplemented with 10% CD-FBS, 50,000 U/I of penicillin, 50 mg/l streptomycin and hormones. Transfection on CHO—S cells was described as above for the preparation of ERs extraction except the medium contained 10% CD-NBCS. The cells subjected to either transfection method were harvested 48 hours post-transfection. Reporter assays were performed by lysing the cells in situ with 250 μl of passive lysis buffer (Promega).
The data represent the mean±S.E. of three independent transfections.

[4] = target: ER mutant 4.3 (Homo sapiens, UniProt P03372, E203W/G215R/G400V/H216P/N217T/Q214V); settings: 10 μM ligand
Procedure: HepG2 human hepatoma cells were maintained in a humidified 5% CO2 incubator at 37° C. in Dulbecco's Modified Eagle's Medium (DMEM; Sigma; St. Louis, Mo.) supplemented with 10 % charcoal-dextran-stripped fetal bovine serum (CD-FBS; Atlanta Biologicals, Inc; Atlanta, Ga.), 50,000 U/l of penicillin, and 50 mg/liter streptomycin (Life Technologies, Inc.).
Transient transfections in HepG2 cells was accomplished using calcium phosphate co-precipitation (Ausubel et al., 1987). Briefly, cells were plated in 12-well microplates at a density of 1×10^5 cells/well. The next day, the medium was replaced, and 2–6 hours later, precipitated calcium phosphate:DNA co-crystals were added. After 12–16 hours, the cells were shocked for 3 minutes with 20% glycerol in Tris-buffered saline, pH 7.4. Fresh medium and (if any) hormones were added. For MCF-7 and 231 cells, transient transfection was carried out using the Tfx™-20 reagent (Promega; Madison, Wis.) according to the manufacturer's direction with minor changes. Briefly, 1×10^5 cells were plated in each well of 12-well microplates one day before transfection. A 1:3 ratio of DNA to lipid was used. […] Activity was determined using the dual luciferase assay protocol according to the manufacturer's directions (Promega) on a Monolight 2010 luminometer (Analytical Luminescence, San Diego, Calif.) […]

[5] = target: T1, N-79 (Homo sapiens, UniProt P03372, E203W/G400V/H216G/Q214A); settings: CHO-S cells, 10 nM OHT
Excerpt: (§1) These fragments were digested with KpnI and BamHI and then purified from agarose gels. […] To create C-129, this ER fragment was digested with XbaI and KpnI and then cloned together with the DNA fragment containing 129 amino acids of VP16 into 5.9 kb vector generated by digestion of CMV-hER with XbaI and BamHI. The same strategy was adopted to create C-79 using the DNA fragment containing 79 amino acids of VP16. Therefore, the expression of these chimeras is driven by the same CMV promoter as that of ER-3M. […] The amplified PCR product was digested with NcoI and NotI. […] This fragment and the NcoI/NotI PCR fragment were then inserted together into the 4.3 kb vector, pGL3-ATL8/PAL-LUC, which was created by digesting ATL8/PAL-LUC completely with NcoI and partially with XbaI so that the luciferase gene was replaced by N-79.
(§2) A second plasmid also containing 8 copes of pS2 PAL drives expression of the reporter gene (FIG. 11, ATL8/PAL-LUC).

[6] = target: T1, N-79; experiment: Autoregulated expression system (ATL8/PAL-N-79 + ATL8/PAL-LUC) in 231 human breast cancer cells; type: cell-based; parameters: expressed in transfected cells; host or cells: HepG2 (A20); 231 human breast cancer cells (A21); CHO-S (A22); settings: 10 nM OHT
Excerpt: as §1, §2

[7] = target: T2, wild type hERα (Homo sapiens, UniProt P03372, G400V); experiment: Ligand-dependent luciferase reporter transactivation in transfected HepG2 cells
T2 sequence (P03372 1-595 G400V): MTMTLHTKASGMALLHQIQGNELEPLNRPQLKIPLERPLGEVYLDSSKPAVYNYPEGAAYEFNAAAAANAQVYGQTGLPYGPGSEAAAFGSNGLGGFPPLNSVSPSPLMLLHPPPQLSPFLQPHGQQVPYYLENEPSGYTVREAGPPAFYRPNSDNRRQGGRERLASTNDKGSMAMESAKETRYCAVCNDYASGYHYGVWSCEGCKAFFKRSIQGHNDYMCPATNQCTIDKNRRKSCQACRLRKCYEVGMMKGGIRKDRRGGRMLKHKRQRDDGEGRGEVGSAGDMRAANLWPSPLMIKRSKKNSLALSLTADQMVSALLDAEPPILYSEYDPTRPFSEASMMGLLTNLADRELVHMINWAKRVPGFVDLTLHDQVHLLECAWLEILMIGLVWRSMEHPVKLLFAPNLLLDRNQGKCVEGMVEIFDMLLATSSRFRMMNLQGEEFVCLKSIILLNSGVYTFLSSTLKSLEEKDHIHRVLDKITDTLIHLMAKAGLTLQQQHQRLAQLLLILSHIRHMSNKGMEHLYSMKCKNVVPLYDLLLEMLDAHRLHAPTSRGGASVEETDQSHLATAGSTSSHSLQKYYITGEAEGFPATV
Procedure: as §3
Transient transfections in HepG2 cells was accomplished using calcium phosphate co-precipitation (Ausubel et al., 1987). Briefly, cells were plated in 12-well microplates at a density of 1×10^5 cells/well. The next day, the medium was replaced, and 2–6 hours later, precipitated calcium phosphate:DNA co-crystals were added. After 12–16 hours, the cells were shocked for 3 minutes with 20% glycerol in Tris-buffered saline, pH 7.4. Fresh medium and (if any) hormones were added. For MCF-7 and 231 cells, transient transfection was carried out using the Tfx™-20 reagent (Promega; Madison, Wis.) according to the manufacturer's direction with minor changes. Briefly, 1×10^5 cells were plated in each well of 12-well microplates one day before transfection. A 1:3 ratio of DNA to lipid was used. The DMEM/F12 medium without serum was used as carrier for the DNA-lipid mixture. After 1 hour incubation with the DNA-lipid-DMEM/F12 at 37° C., the cells were transferred to fresh DMEM/F12 supplemented with 10% CD-FBS, 50,000 U/I of penicillin, 50 mg/l streptomycin and hormones. Transfection on CHO—S cells was described as above for the preparation of ERs extraction except the medium contained 10% CD-NBCS. The cells subjected to either transfection method were harvested 48 hours post-transfection. Reporter assays were performed by lysing the cells in situ with 250 μl of passive lysis buffer (Promega). Activity was determined using the dual luciferase assay protocol according to the manufacturer's directions (Promega) on a Monolight 2010 luminometer (Analytical Luminescence, San Diego, Calif.)
Transient transfections of HepG2 cells were carried out and luciferase activity determined.

[8] = target: T1, N-79; experiment: Autoregulated expression system (ATL8/PAL-N-79 + ATL8/PAL-LUC) in HepG2 cells; type: cell-based; parameters: expressed in transfected cells; host or cells: HepG2 (A20); 231 human breast cancer cells (A21); CHO-S (A22); settings: HepG2 human hepatoblastoma cells, 10 nM OHT
Excerpt: as §1, §2

[9] = target: ER 4.3 (Homo sapiens, UniProt P03372, E203W/G215R/G400V/H216P/N217T/Q214V)
Procedure: as §3
Transient transfections in HepG2 cells was accomplished using calcium phosphate co-precipitation (Ausubel et al., 1987). Briefly, cells were plated in 12-well microplates at a density of 1×10^5 cells/well. The next day, the medium was replaced, and 2–6 hours later, precipitated calcium phosphate:DNA co-crystals were added. […] Activity was determined using the dual luciferase assay protocol according to the manufacturer's directions (Promega) on a Monolight 2010 luminometer (Analytical Luminescence, San Diego, Calif.) […]

[10] = system: mutant and chimeric estrogen receptors
[11] = ATL8/PAL-LUC, 2.5 ng expression plasmid, 10 nM OHT

T1 sequence (P03372 with tags, fused parts or gaps E203W/Q214A/H216G/G400V): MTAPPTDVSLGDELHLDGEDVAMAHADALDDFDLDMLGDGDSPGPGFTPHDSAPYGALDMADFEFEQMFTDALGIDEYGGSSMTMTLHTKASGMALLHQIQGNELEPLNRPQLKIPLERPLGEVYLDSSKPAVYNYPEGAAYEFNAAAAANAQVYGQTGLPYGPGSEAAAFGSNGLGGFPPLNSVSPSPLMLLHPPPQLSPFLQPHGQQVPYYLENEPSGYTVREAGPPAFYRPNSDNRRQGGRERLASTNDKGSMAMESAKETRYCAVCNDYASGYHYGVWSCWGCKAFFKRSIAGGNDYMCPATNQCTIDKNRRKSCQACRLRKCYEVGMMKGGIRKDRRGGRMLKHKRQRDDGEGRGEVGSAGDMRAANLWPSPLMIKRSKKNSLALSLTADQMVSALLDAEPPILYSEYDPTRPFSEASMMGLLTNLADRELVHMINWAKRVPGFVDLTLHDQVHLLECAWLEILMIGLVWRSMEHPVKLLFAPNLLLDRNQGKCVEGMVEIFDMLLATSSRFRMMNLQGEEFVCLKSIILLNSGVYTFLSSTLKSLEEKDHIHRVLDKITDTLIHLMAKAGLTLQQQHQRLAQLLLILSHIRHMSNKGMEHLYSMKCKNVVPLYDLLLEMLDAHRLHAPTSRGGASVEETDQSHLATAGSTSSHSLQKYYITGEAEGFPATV
Chain of ER3M (P03372 whole entry E203W/Q214A/H216G/G400V): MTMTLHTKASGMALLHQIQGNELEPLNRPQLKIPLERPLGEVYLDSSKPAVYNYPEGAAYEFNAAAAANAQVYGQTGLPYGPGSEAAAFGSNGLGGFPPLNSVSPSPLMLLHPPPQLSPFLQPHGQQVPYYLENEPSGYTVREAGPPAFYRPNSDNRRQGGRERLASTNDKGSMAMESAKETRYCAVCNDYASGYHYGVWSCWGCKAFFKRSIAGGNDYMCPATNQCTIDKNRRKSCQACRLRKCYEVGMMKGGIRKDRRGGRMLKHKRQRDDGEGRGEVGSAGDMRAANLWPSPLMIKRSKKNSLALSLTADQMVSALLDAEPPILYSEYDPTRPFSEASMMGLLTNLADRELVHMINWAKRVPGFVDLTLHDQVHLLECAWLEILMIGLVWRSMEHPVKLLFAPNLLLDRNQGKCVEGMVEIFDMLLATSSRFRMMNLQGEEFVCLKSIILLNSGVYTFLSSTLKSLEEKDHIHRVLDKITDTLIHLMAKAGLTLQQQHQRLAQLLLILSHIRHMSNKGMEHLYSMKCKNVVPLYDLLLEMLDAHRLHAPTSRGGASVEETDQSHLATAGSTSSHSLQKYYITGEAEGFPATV
Chain of ER 4.3 (P03372 whole entry E203W/Q214V/G215R/H216P/N217T/G400V): as the sequence (P03372 whole entry E203W/Q214A/H216G/G400V) above, with A214V, G215R, G216P, N217T counted along it
Chain of ER mutant 4.3 (P03372 whole entry E203W/Q214V/G215R/H216P/N217T/G400V): as the sequence (P03372 whole entry E203W/Q214A/H216G/G400V) above, with A214V, G215R, G216P, N217T counted along it
Chain of ER 2 (P03372 whole entry E203W/Q214A/G215R/G400V): as the sequence (P03372 whole entry E203W/Q214A/H216G/G400V) above, with G215R, G216H counted along it

Q: With 4-hydroxytamoxifen [OHT] as the molecule, how does the “transactivation by OHT compared with MOX” value ([1]; ATL2/PAL-LUC, 10 nM ligand) read?
A: exceeded that seen with MOX

Q: What about the “increase in reporter gene expression by OHT” value [1, 11] of the same molecule?
A: 117 fold

Q: What about the “maximal level of transactivation” value ([1]; ATL8/PAL-LUC, tamoxifen compared with OHT) of the same molecule?
A: similar

Q: What about the “transactivation by OHT compared with MOX” value [2] of the same molecule?
A: equal to that seen with MOX

Q: And the “agonist character of OHT when pS2 PAL supplied the ERE” value ([3]; ATL2/PAL-LUC, 10 nM ligand, ER mutants)?
A: full agonist

Q: What about the “transactivation in response to OHT, percent of that seen with MOX” value ([3]; ATL2/pS2 ERE-LUC, 10 nM ligand) of the same molecule?
A: about 30%

Q: And the “OHT transactivation with four copies of pS2 PAL compared with MOX” value ([3]; ATL4/PAL-LUC, 10 nM ligand)?
A: same level of transactivation as MOX

Q: What about the “OHT activity, percent of that seen with MOX” value ([3]; ATL4/cERE-LUC, wild type hERα and ERs 3M and 4.3, 10 nM ligand) of the same molecule?
A: 20–25%

Q: What about the “OHT-mediated activation of transcription on different versions of pS2 PAL reporters” value ([3]; summary, pS2 PAL reporters and the ER mutants) of the same molecule?
A: 70–1000 fold

Q: And the “transactivation by OHT, percent of that seen with E2” value ([4]; ATL4/PAL-LUC)?
A: 45%

Q: What about the “OHT-mediated transactivation, percent of that observed with estradiol (E2)” value ([4]; ATL4/cERE-LUC) of the same molecule?
A: 13%

Q: What about the “induction upon addition of OHT” value [5] of the same molecule?
A: 28 fold

Q: And the “increase in luciferase activity upon addition of OHT” value [6]?
A: 813 fold

Q: What about the “agonism on ATL8/cERE-LUC, OHT compared with moxestrol” value ([7]; 10 nM ligand) of the same molecule?
A: weaker agonist than moxestrol

Q: What about the “transactivation of ATL8/PAL-LUC, OHT compared with MOX” value ([7]; 10 nM ligand) of the same molecule?
A: higher with OHT than with MOX

Q: What about the “transactivation level on two copies of pS2 PAL” value ([7]; ATL2/PAL-LUC, 10 nM ligand) of the same molecule?
A: undetectable

Q: And the “agonist activity when bound to the cERE” value ([7]; ATL2/cERE-LUC, 10 nM OHT)?
A: weak agonist activity

Q: And the “induction of luciferase activity from ATL8/PAL” value ([7]; ATL8/PAL-LUC, 5 ng expression plasmid, 10 nM OHT)?
A: 52 fold

Q: What about the “increase in luciferase activity upon addition of OHT” value [8] of the same molecule?
A: 1027 fold

Q: And the “transactivation by OHT compared with MOX” value ([9]; ATL2/PAL-LUC, 10 nM ligand)?
A: equal to that seen with MOX

Q: And the “increase in reporter gene expression by OHT” value [9, 11]?
A: 172 fold

Q: How did the “transcription activation when bound to mutant and chimeric estrogen receptors” value [10] turn out when `O=C(c1ccc(OCCN2CCCCC2)cc1)c1c(-c2ccc(O)cc2)sc2cc(O)ccc12` [Raloxifene] was run?
A: fail to activate transcription
